Test results: patent US12128045B2, “Platinum-resistant cancer treatment” (BTG International Limited, priority 2017, dated 2024)

Legend:
[1] = test system: reduced folate carrier (RFC); conditions: except at high concentrations; Gibbs et al., 2005; cited from earlier work
[2] = target: alpha-folate receptor (FR-α) (Homo sapiens, UniProt P15328); conditions: relative to folic acid; Theti et al., 2003; cited from earlier work
[3] = in vivo; cited from earlier work
[4] = Phase I trial EudraCT3941 (Example 1): safety and toxicity; type: in vivo, human
Description: (§1) Methods: A 3+3 dose escalation design was used and two IV schedules were explored. Schedule A, weekly dosing (QW) and schedule B, once every 2 weeks dosing (Q2W). A cycle consisted of 4 weeks and treatment was stopped after 6 cycles in both schedules. An expansion cohort to evaluate clinical activity in patients with FR-α overexpressing high grade serous ovarian cancer (HGSOC) was initiated.

[5] = test system: tumour cell proliferation; assay: Inhibition of tumour cell proliferation in vitro; type: cell-based
[6] = test system: high grade serous ovarian cancer (HGSOC); assay: Phase I trial EudraCT3941 (Example 1): tumour response (RECIST partial responses); type: in vivo, human
Description: as §1

[7] = target: thymidylate synthase (TS); conditions: read-out: Ki against isolated target thymidine synthase; cited from earlier work
[8] = target: T1, folylpolyglutamate synthase (FPGS) (Homo sapiens, UniProt Q05932); conditions: cited from earlier work
T1 sequence (Q05932 43-587): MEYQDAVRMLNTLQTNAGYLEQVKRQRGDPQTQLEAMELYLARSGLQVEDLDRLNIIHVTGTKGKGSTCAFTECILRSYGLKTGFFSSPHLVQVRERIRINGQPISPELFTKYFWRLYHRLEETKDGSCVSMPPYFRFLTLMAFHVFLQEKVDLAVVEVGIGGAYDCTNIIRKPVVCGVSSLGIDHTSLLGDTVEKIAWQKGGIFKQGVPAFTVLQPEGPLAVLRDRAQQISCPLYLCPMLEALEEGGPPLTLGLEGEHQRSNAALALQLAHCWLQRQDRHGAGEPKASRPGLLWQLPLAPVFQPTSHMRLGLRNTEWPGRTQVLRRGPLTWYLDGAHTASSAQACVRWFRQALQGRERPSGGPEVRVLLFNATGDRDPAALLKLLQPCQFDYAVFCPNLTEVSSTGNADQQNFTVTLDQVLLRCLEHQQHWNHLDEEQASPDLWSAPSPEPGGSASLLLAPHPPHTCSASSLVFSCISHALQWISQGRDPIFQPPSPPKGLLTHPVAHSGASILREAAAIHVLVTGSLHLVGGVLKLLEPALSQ

thymidylate synthase = target: T2, thymidylate synthase (Homo sapiens, UniProt P04818); assay: FLT PET imaging of thymidylate synthase inhibition in trial patients; conditions: in vivo
T2 construct: from tissue; host or cells: tumour tissue of trial patients, in vivo
T2 sequence (P04818 2-313 limits assumed): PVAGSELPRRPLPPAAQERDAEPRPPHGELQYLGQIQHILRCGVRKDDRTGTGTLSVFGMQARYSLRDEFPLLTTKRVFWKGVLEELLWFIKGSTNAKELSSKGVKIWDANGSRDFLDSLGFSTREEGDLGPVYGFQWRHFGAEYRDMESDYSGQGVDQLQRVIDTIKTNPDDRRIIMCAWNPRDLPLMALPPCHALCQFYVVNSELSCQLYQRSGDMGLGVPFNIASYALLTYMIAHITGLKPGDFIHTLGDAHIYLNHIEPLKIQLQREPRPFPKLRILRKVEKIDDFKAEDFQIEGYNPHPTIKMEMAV
Description: 3827-3834. 2008 (Pillai et al).

[9] = Phase I trial EudraCT3941 (Example 1): pharmacokinetics; type: in vivo, human
Description: as §1

[10] = Half life on administration to man; conditions: in vivo
[11] = test system: platinum resistant epithelial ovarian cancer; conditions: 6 mg/kg every three weeks, cited from earlier work
[12] = in vivo; cited from earlier work; remark: listed apart in the source
[13] = test system: platinum-sensitive epithelial ovarian cancer; conditions: 1,100 patient Phase III, with paclitaxel and carboplatin; cited from earlier work
[14] = expansion cohort, archival samples analysed

alpha-folate receptor (FR-α), sequence (P15328 25-234, species assumed): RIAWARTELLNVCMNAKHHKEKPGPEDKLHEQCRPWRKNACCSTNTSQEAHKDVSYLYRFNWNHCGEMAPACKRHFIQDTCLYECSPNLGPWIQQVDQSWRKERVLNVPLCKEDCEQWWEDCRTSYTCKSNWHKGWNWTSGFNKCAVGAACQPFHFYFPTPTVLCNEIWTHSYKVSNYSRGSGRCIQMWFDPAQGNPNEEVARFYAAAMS

C#CCN(c1ccc(C(=O)N[C@@H](CCC(=O)N[C@H](CCC(=O)O)C(=O)O)C(=O)O)cc1)[C@H]1CCc2cc3nc(CO)[nH]c(=O)c3cc21 [BTG945, N—{N-{4-[N-((6S)-2-Hydroxymethyl-4-oxo-3,4,7,8-tetrahydro-6H-cyclo-penta[g]quinazolin-6-yl)-N-(prop-2-ynyl)amino]benzoyl}-L-γ-glutamyl}-D-glutamic acid]
affinity for reduced folate carrier (RFC) [1]: negligible affinity | affinity for α-FR as % of folic acid (FA) [2]: 70% | dose at which toxicity occurred (incidence of BOOP) [3]: 45 mg/m^2 | grade 3-4 diarrhea, mucositis or neutropenia ([4]; human, in vivo, 24 weeks): No grade 3-4 diarrhea, mucositis or neutropenia | incidence of dysgeusia ([4]; human, in vivo, 24 weeks): 12% | incidence of fatigue ([4]; human, in vivo, 24 weeks): 36% | incidence of nausea ([4]; human, in vivo, 24 weeks): 21% | cases of suspected drug-related drop in Dlco ([4]; in vivo): No cases | conventional toxicities of cytotoxic chemotherapy (myelotoxicity, nephrotoxicity, neurotoxicity) ([4]; in vivo): not observed | dose limiting effects other than BOOP ([4]; in vivo): not seen | occurrence of treatment limiting BOOP ([4]; in vivo): without occurrence | side effects associated with α-folate receptor antibody conjugates (diarrhoea, blurred vision, nausea) ([4]; in vivo): not observed | side effects normally associated with thymidine synthase inhibitors (neutropenia, diarrhoea, hair loss) ([4]; in vivo): not observed | dose limiting toxicity ([4]; schedule A, weekly IV dosing (QW), 1-6 mg/m^2): G3 cellulitis | dose limiting toxicity ([4]; schedule B, IV once every 2 weeks (Q2W), 2-12 mg/m^2): no dose limiting toxicity | inhibition of tumour cell proliferation in vitro [5]: concentration and time-dependent inhibition | patients with HGSOC with partial responses (PRs) ([6]; dose escalation cohort): 5 patients | patients with PRs ([6]; expansion cohort, HGSOC, 12 mg/m^2 Q2W): 5/11 | AFR+ve patients with PR [6, 14]: 4/4 | AFR−ve patients who did not have a PR [6, 14]: 4/4 | Ki [7]: 1.2 nM | substrate for FPGS [8]: not a substrate | thymidylate synthase inhibition by FLT PET imaging (thymidylate synthase): Evidence of thymidylate synthase inhibition | period for which concentrations above 0.5 μM were achieved ([9]; doses above 6 mg/m^2): 72 h | period for which concentrations between 0.05-1 μM were achieved ([9]; doses of 4 mg/m^2 and above): 48 h | AUC ([9]; human, in vivo, iv, 12 mg/m2): 85200 ng·h/mL | Cmax ([9]; human, in vivo, iv, 12 mg/m2): 4950 ng/mL | half-life ([9]; human, in vivo, iv, 12 mg/m2): 26 h | half life levels on administration to man [10]: unusually long

IMGN853: Antibody-drug conjugate, FR-α targeted
share of patients with three or less prior lines of therapy showing this outcome [11]: 39% | PFS ([11]; patients with three or less prior lines of therapy): 6.7 months

Nc1nc2[nH]cc(CCc3ccc(C(=O)N[C@@H](CCC(=O)O)C(=O)O)cc3)c2c(=O)[nH]1 [pemetrexed]
half-life in plasma [12]: fairly short | substrate for FPGS [8]: excellent substrates

Cc1nc2ccc(CN(C)c3ccc(C(=O)N[C@@H](CCC(=O)O)C(=O)O)s3)cc2c(=O)[nH]1 [Raltitrexed, raltitrexed]
half-life in plasma [12]: fairly short | substrate for FPGS [8]: excellent substrates

Farletuzumab: FR-α targeted monoclonal antibody
progression free survival (PFS) [13]: failed to improve progression free survival

C#CCN(Cc1cc2c(=O)[nH]c(C)nc2cc1C)c1ccc(C(=O)N[C@@H](CCc2nnn[nH]2)C(=O)O)c(F)c1 [Plevitrexed, plevitrexed]
half-life in plasma [12]: long | substrate for FPGS [8]: not a substrate
